# In article PMC5889410, “Design and Biological Evaluation of Antifouling Dihydrostilbene Oxime Hybrids” (Marine Biotechnology (New York, N.y.), 2018):
# Key:
# [1] = system: Balanus improvisus cyprid larvae; test: whole plant or invertebrate; format: in vivo; conditions: for IC50: Amphibalanus improvisus, 120 h, read-out: IC50 (cyprid settlement inhibition)
# Summary of the method: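 Freshly molted cyprids (18–22 per dish) exposed in filtered seawater to 0.1–10 μg/mL compound (0.1% DMSO controls) for 5 days at 20–25 °C. Settled, swimming and dead larvae counted by microscope; IC50 is the concentration preventing 50% settlement, n = 4, determined only for compounds inhibiting >50% at 5 μg/mL.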
# [2] = system: Porphyridium purpureum; test: Microalgal adhesion assay (chlorophyll a); format: cell-based; conditions: 120 h, 5 days incubation, 10–0.01 μg/mL tested, read-out: MIC against the adhesion (A) of microalgae, P. purpureum
# Text: (§1) Cyprid larvae of B. improvisus were reared in a laboratory cultivating system at Tjärnö Marine Biological Laboratory, University of Gothenburg, Sweden, as previously described by Berntsson et al. ([2000]). Four pure, but non-axenic, marine microalgae (obtained from Algobank, Caen, France) and 10 marine bacterial strains were used (Table 1) as representative microfoulers. These strains represent fouling species encountered in both estuarine and marine environments (Moodie et al. [2017b]). The bacteria were grown at 26 °C in a marine medium, composed of 0.5% peptone (neutralized bacteriological peptone, Oxoid Ltd.) in filtered (Whatman 1001–270, pore size 11 μm) natural seawater. Microalgae were grown and maintained at 22 °C in F/2 medium.
# (§2) Microplates containing the compounds in ranging concentrations (10–0.01 μg/mL) were prepared from MeOH stock solutions as previously described (Trepos et al. [2014]; Moodie et al. [2017a]). Microalgal stock solutions were prepared using the chlorophyll analysis methodology of Chambers et al. ([2011]). The pretreated microplate wells were treated with 100 μL of the algal stock solutions (0.1 mg chlorophyll a/mL). The plates were then incubated for 5 days at 20 °C under constant light exposure (140 μmol m^−2 s^−1). Both microalgal adhesion and growth inhibition were measured. Growth was determined by analysis of liberated chlorophyll a after centrifugation and methanol addition. Chlorophyll a was quantified fluorometrically. MIC value for algal growth was defined as the lowest concentration yielding a decrease in chlorophyll a content. Microalgal adhesion was determined in an analogous manner where the non-attached algal cells were removed prior to methanol addition (100 μL), releasing chlorophyll a from the remaining algal biofilms. The MIC for adhesion was defined as the lowest compound concentration causing a reduction in […]. Toxicity experiments were performed in an analogous manner to those described for the bacterial assays.
# [3] = system: Cylindrotheca closterium; test: Microalgal adhesion assay (chlorophyll a); format: cell-based; conditions: 120 h, 5 days incubation, 10–0.01 μg/mL tested, read-out: MIC against the adhesion (A) of microalgae, C. closterium
# Text: as §1, §2
# [4] = system: Pleurochrysis roscoffensis; test: Microalgal adhesion assay (chlorophyll a); format: cell-based; conditions: Chrysotila roscoffensis, 120 h, 5 days incubation, 10–0.01 μg/mL tested, read-out: MIC against the adhesion (A) of microalgae, P. roscoffensis
# Text: as §1, §2
# [5] = system: Roseobacter litoralis; test: Bacterial growth assay (OD 630 nm); format: cell-based; conditions: 48 h incubation, 10–0.01 μg/mL tested, read-out: MIC against the growth of marine bacteria, R.l.
# Summary of the method: (§3)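 2 × 10^8 CFU/mL cells + compound 10–0.01 μg/mL, 48 h, 26 °C, peptone/seawater medium. Growth: OD 630 nm, MIC = lowest conc. lowering OD. Adhesion: wells rinsed with sterile seawater, air-dried, 0.3% crystal violet, OD 595 nm.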
# [6] = system: Halomonas aquamarina; test: Bacterial growth assay (OD 630 nm); format: cell-based; conditions: Vreelandella aquamarina, 48 h incubation, 10–0.01 μg/mL tested, read-out: MIC against the growth of marine bacteria, H.a.
# Summary of the method: as §3
# [7] = system: Shewanella putrefaciens; test: Bacterial growth assay (OD 630 nm); format: cell-based; conditions: 48 h incubation, 10–0.01 μg/mL tested, read-out: MIC against the growth of marine bacteria, S.p.
# Summary of the method: as §3
# [8] = system: Vibrio aestuarianus; test: Bacterial growth assay (OD 630 nm); format: cell-based; conditions: 48 h incubation, 10–0.01 μg/mL tested, read-out: MIC against the growth of marine bacteria, V.a.
# Summary of the method: as §3
# [9] = system: Vibrio harveyi; test: Bacterial growth assay (OD 630 nm); format: cell-based; conditions: 48 h incubation, 10–0.01 μg/mL tested, read-out: MIC against the growth of marine bacteria, V.h.
# Summary of the method: as §3
# [10] = system: Vibrio proteolyticus; test: Bacterial growth assay (OD 630 nm); format: cell-based; conditions: 48 h incubation, 10–0.01 μg/mL tested, read-out: MIC against the growth of marine bacteria, V.p.
# Summary of the method: as §3
# [11] = system: Vibrio natriegens; test: Bacterial growth assay (OD 630 nm); format: cell-based; conditions: 48 h incubation, 10–0.01 μg/mL tested, read-out: MIC against the growth of marine bacteria, V.n.
# Summary of the method: as §3
# [12] = system: Vibrio carchariae; test: Bacterial growth assay (OD 630 nm); format: cell-based; conditions: Vibrio harveyi, 48 h incubation, 10–0.01 μg/mL tested, read-out: MIC against the growth of marine bacteria, V.c.
# Summary of the method: as §3
# [13] = system: Pseudoalteromonas elyakovii; test: Bacterial growth assay (OD 630 nm); format: cell-based; conditions: 48 h incubation, 10–0.01 μg/mL tested, read-out: MIC against the growth of marine bacteria, P.e.
# Summary of the method: as §3
# [14] = system: marine bacteria; test: Bacterial adhesion assay, whole panel of ten strains; format: cell-based, 10 marine bacterial strains; conditions: tested up to 10 μg/mL, active = MIC of 10 μg/mL or below
# Summary of the method: as §3
# [15] = system: Porphyridium purpureum; test: Microalgal growth assay (chlorophyll a); format: cell-based; conditions: 120 h, 5 days incubation, 10–0.01 μg/mL tested, read-out: MIC against the growth (G) of microalgae, P. purpureum
# [16] = system: Cylindrotheca closterium; test: Microalgal growth assay (chlorophyll a); format: cell-based; conditions: 120 h, 5 days incubation, 10–0.01 μg/mL tested, read-out: MIC against the growth (G) of microalgae, C. closterium
# [17] = system: Pleurochrysis roscoffensis; test: Microalgal growth assay (chlorophyll a); format: cell-based; conditions: Chrysotila roscoffensis, 120 h, 5 days incubation, 10–0.01 μg/mL tested, read-out: MIC against the growth (G) of microalgae, P. roscoffensis
# [18] = system: Halamphora coffeaeformis; test: Microalgal growth assay (chlorophyll a); format: cell-based; conditions: Halamphora coffeiformis, 120 h, 5 days incubation, 10–0.01 μg/mL tested, read-out: MIC against the growth (G) of microalgae, H. coffeaformis
# [19] = system: microalgae; test: Microalgal adhesion and growth, whole panel of four species; format: cell-based, four marine microalgae; conditions: 10–0.01 μg/mL tested
# Text: as §1, §2
# [20] = system: Halamphora coffeaeformis; test: Microalgal adhesion assay (chlorophyll a); format: cell-based; conditions: Halamphora coffeiformis, 120 h, 5 days incubation, 10–0.01 μg/mL tested, read-out: MIC against the adhesion (A) of microalgae, H. coffeaformis
# Text: as §1, §2
# [21] = system: Halomonas aquamarina; test: Bacterial adhesion assay (crystal violet, OD 595 nm); format: cell-based; conditions: Vreelandella aquamarina, 48 h incubation, 10–0.01 μg/mL tested, read-out: MIC against the adhesion of marine bacteria, H.a.
# Text: as §1
# (§4) Bacterial strain adhesion and growth were determined according to the methods of Thabard et al. ([2011]). Bacterial suspensions (100-μL aliquots, 2 × 10^8 colony forming units/mL) were aseptically added to the compound containing microplate wells (10–0.01 μg/mL), and the plates were incubated for 48 h at 26 °C. Media only was used as a blank. Bacterial growth was monitored spectroscopically at 630 nm. The minimal inhibitory concentration (MIC) for bacterial growth was defined as the lowest concentration which results in a decrease in OD. After 48-h incubation time, the bacterial adhesion assay was conducted by emptying the wells and rinsing with sterile seawater (100 μL) to remove non-attached cells, and air-drying at room temperature. The residual bacterial biofilm was stained with aqueous crystal violet (100 μL, 0.3% v/v) and the OD measured at 595 nm (Sonak and Bhosle [1995]). […] If inhibition was observed, toxicity tests were conducted. The well contents were transferred into a flask of fresh media, and growth was measured after 5 days of additional incubation. The mode of action was deemed biostatic if an increase in OD was measured at 595 nm (Moodie et al. [2017a]).
# [22] = system: Vibrio aestuarianus; test: as above; format: cell-based; conditions: 48 h, read-out: MIC against the adhesion of marine bacteria, V.a.
# Text: as §1, §4
# [23] = system: Vibrio harveyi; test: as above; format: cell-based; conditions: 48 h, read-out: MIC against the adhesion of marine bacteria, V.h.
# Text: as §1, §4
# [24] = system: Vibrio proteolyticus; test: as above; format: cell-based; conditions: 48 h, read-out: MIC against the adhesion of marine bacteria, V.p.
# Text: as §1, §4
# [25] = system: Vibrio carchariae; test: as above; format: cell-based; conditions: Vibrio harveyi, 48 h, read-out: MIC against the adhesion of marine bacteria, V.c.
# Text: as §1, §4
# [26] = system: marine bacteria; test: Bacterial growth assay, whole panel of ten strains; format: cell-based, 10 marine bacterial strains; conditions: tested up to 10 μg/mL
# Text: as §1, §4
smiles,measurement,setting,value
"COc1ccc(CC(=NO)c2ccc(O)c(OC)c2)cc1 [Compound 11, 1-(3-methoxy-4-hydroxyphenyl)-1-hydroxyimino-2-(4’-methoxyphenyl)-ethane]",IC50,[1],> 5 µg/mL
same,inhibition of cyprid settlement in the initial screen,"[1]; B. improvisus, at 5.0 μg/mL",inactive
same,Toxicity (%) (dead cyprids),"[1]; Balanus improvisus, in vivo, 5 days, 5 μg/mL",5.3%
same,MIC,[2],> 10 µg/mL
same,MIC,[3],> 10 µg/mL
same,MIC,[4],> 10 µg/mL
same,MIC,[5],> 10 µg/mL
same,MIC,[6],10 µg/mL
same,MIC,[7],> 10 µg/mL
same,MIC,[8],> 10 µg/mL
same,MIC,[9],> 10 µg/mL
same,MIC,[10],> 10 µg/mL
same,MIC,[11],> 10 µg/mL
same,MIC,[12],> 10 µg/mL
same,MIC,[13],> 10 µg/mL
same,MIC / activity against the adhesion of all bacteria tested,[14],"^aCompounds 7, 8, 10, 11, and 12 were inactive against the adhesion of all bacteria tested up to 10 μg/mL"
same,MIC,[15],10 µg/mL
same,MIC,[16],10 µg/mL
same,MIC,[17],10 µg/mL
same,MIC,[18],> 10 µg/mL
"COc1cc(OC)cc(C(Cc2ccccc2)=NO)c1 [Compound 15, 1-(3,5-Dimethoxyphenyl)-1-Hydroxyimino-2-Phenylethane]",MIC / activity against the attachment and growth of microalgae,[19],not significantly active
same,IC50,[1],0.75 µg/mL
same,MIC,[20],10 µg/mL
same,MIC,[21],10 µg/mL
same,MIC,[22],10 µg/mL
same,MIC,[23],10 µg/mL
same,MIC,[24],> 10 µg/mL
same,MIC,[25],10 µg/mL
same,MIC / activity against the adhesion of all bacteria tested,[14],displayed inhibitory activities
same,MIC / activity against the growth of all bacteria tested,[26],^aCompound 15 was inactive against the growth of all bacteria tested up to 10 μg/mL
same,MIC,[15],> 10 µg/mL
same,MIC,[16],> 10 µg/mL
same,MIC,[17],> 10 µg/mL
same,MIC,[18],> 10 µg/mL
